# Read-outs that look alike come from different tables or passages of the source.
# Experiments:
# [1] = system: T. cruzi Tulahuen strain amastigotes; assay: Trypanocidal activity in intracellular amastigotes (β-galactosidase, U937 macrophages); type: cell-based, Trypanosoma cruzi; settings: Trypanosoma cruzi
# Procedure: To obtain intracellular amastigotes, 2.5 × 10^6 U937 differentiated macrophage cells were infected with T. cruzi epimastigotes (Tulahuen strain producing β-galactosidase, 24 h of growing) in a 5:1 parasite/cell ratio. To calculate EC50, 100 μL of UBMC-4 were added at four serial dilutions ([…]) to each well, and benznidazole (bz) was added at an initial concentration of 20 µg/mL and 6 serial 2-fold dilutions were used to determine its EC50 as a control of the effectiveness of the experiment, in addition to the control of the viability of the parasites (cells without drug treatment), from the blank of the culture medium (medium without cells), in duplicate. The cells were incubated for 72 h at 37 °C with 5% of CO2. All medium was removed and 100 µL of substrate for β-galactosidase diluted in PBS (chlorophenol β-d-galactopyranoside-CPRG network; Sigma-Aldrich, St Louis, MO, USA, at 100 mM and 0.1% Nonidet P-40) was added to each well and incubated at 37 °C for 3 h. The amount of chlorophenol red released was read at 570 nm in a spectrophotometer (Varioskan TM). Infected cells were used as negative control while infected cells treated with benznidazole were used as a positive control (trypanocidal activity) for the assay. RPMI-1640 medium was used as a negative control. Non-specific absorbance was corrected by subtracting the OD of the blank sample. Determinations were done in triplicate in at least two independent experiments.
# The trypanocidal activity was determined based on the percentage of decrease of amastigotes determined using equation, as follows: % reduction of infection = 100 − (O.D. of treated infected cells)/(O.D. of non-treated infected cells) × 100. The half maximal effective concentration (EC50) was calculated by the linear regression model Probit using Graphpad Prism software.
# T. cruzi epimastigotes [2] = assay: Flow cytometry of apoptosis-like markers in epimastigotes (Hoechst, DiOC6, PI); type: cell-based, Trypanosoma cruzi; settings: 10 µM, 24 h
# Procedure: Apoptosis-like markers were analyzed by triple staining using 3,3′-dihexyloxacarbocyanine (DiOC6), propidium iodide (PI), and Hoechst from Thermo Fisher Scientific to determine the change of mitochondrial membrane potential (ΔΨm), cell membrane damage, and impairment of cell cycle, respectively. All readings were performed on a BD FACSCanto II 4/2/2 Sys IVD flow cytometer, and data obtained were analyzed using the FlowJo7.6.2 software. Differences between treatments were determined by a two-way ANOVA for multiple comparisons with 95% significance using GraphPad Prism 8. In all cases, 20 µL of parasites (5 × 10^6/mL) were stained per treatment with 300 µL of Hanks’ balanced saline solution (HBSS) and 10 µL of the staining mix containing […], 0.5 µL of 70 nM DiOC6, and 0.5 µL of 10 mg/mL Hoechst. Subsequently, parasites were incubated at room temperature for 15 min until reading.
# T. cruzi epimastigotes in exponential growth phase were used to submit the parasites to a treatment under nutritional stress and further challenging the culture with the inhibitor UBMC-4 and the control drug bz. Nutritional stress was induced by starving the parasites in PBS. Parasites were grown either in complete RPMI medium or PBS (with and without 10 µM UBMC-4) for 24 h at 28 °C. Three independent biological replicates were analyzed per treatment. The experiments were performed in 24-well plates at an initial concentration of 1 × 10^7 total parasites in 2 mL/well. Parasites were centrifuged at 1800 RCF for 5 min, washed once with PBS buffer, and then resuspended in a final volume of 2 mL for further labeling and flow cytometry.
# T. cruzi epimastigotes [3] = assay: Intracellular ROS production in epimastigotes (H2DCFDA); type: cell-based, Trypanosoma cruzi; settings: 10 µM, 24 h
# Procedure: A total of 1.4 × 10^6 epimastigotes grown under normal and stress nutritional conditions were treated with 10 µM UBMC-4 for 24 h and the intracellular ROS concentration was determined by fluorometric testing with the diacetate 2′,7′-dichlorodihydrofluorescein (H2DCFDA) probe at 0.2 µg/mL. As controls, cell cultures both treated with no probe as well as only labeled with H2DCFDA were performed to determine baseline fluorescence. A ROS-production positive control was set up by challenging parasites with […] rotenone (a ROS inducer) for 1 h prior to labeling and reading. After the treatment, parasites were washed and resuspended in 100 µL of the H2DCFDA-containing solution, transferred to 96-well plates protected from the light, and then incubated for 1 h at 37 °C. The test readout was collected using an ELISA plate reader at an excitation wavelength of 495 nm and emission wavelength of 527 nm, respectively. Each treatment was performed in triplicate, and data were reported in arbitrary units of fluorescence.
# [4] = Toxicity / tolerability in mice; type: in vivo
# T. cruzi trypomastigotes = assay: Morphological changes of trypomastigotes incubated with UBMC-4 (data not shown); type: cell-based, Trypanosoma cruzi; settings: 10 µM
structure (smiles),measurement,setting,value
"Oc1ccc(-c2nc(-c3ccc4sc5ccccc5c4c3)c(-c3ccccc3)[nH]2)cc1 [UBMC-4, 4-(4-dibenzo-[b,d]-thien-2-yl-5-phenyl-1H-imidazol-2-yl)phenol]",EC50,"[1]; TULAHUEN, U-937, 72 h, read-out: EC50 half maximal effective concentration for T. cruzi amastigotes",1850 ± 1000 nM
same,EC50,"[1]; U-937, intracellular amastigotes, Tulahuen strain, same value in mass units, read-out: EC50 for T. cruzi amastigotes",0.774 µg/mL
same,changes in apoptosis-like markers,T. cruzi epimastigotes [2]; normal culture conditions,no changes in apoptosis-like markers
same,"DNA fragmentation (hypodiploid, Sub G0/G1), % of population",T. cruzi epimastigotes [2]; nutritional stress,up to 39.4%
same,"cell membrane damage (PI), % of population",T. cruzi epimastigotes [2]; nutritional stress,38.4%
same,"mitochondrial depolarization (DiOC6), % of population",T. cruzi epimastigotes [2]; nutritional stress,99.9%
same,"intracellular ROS concentration, treated vs untreated",T. cruzi epimastigotes [3]; normal nutritional conditions,No significant differences
same,intracellular ROS concentration compared to untreated parasites,T. cruzi epimastigotes [3]; nutritional stress,twofold ROS concentration
same,tolerability in preliminary toxicity study,[4]; 200 mg/kg administered once and 100 mg/kg every 24 h for 30 days,significant tolerability
same,acute toxicity,"[4]; mice of the pharmacokinetic assay, 200 mg/kg oral single dose",did not exhibit acute toxicity
same,death of mice,"[4]; mouse, in vivo, po, 200 mg/kg",did not cause death to any of the mice
same,morphological changes of trypomastigotes,T. cruzi trypomastigotes,much faster progressive morphological changes within the hour

# — publication PMC9229894, “In Silico, In Vitro, and Pharmacokinetic Studies of UBMC-4, a Potential Novel Compound for Treating against Trypanosoma cruzi” (Pathogens, 2022)
